Measurements taken from patent US6239171A, “Tocotrienols and tocotrienol-like compounds and methods for their use” (Lipogenics, Inc., priority 1998, dated 2001).

Assays:
[1] = system: chickens; experiment: Serum cholesterol, apolipoproteins, triglycerides and glucose in chickens fed supplemented diets; type: in vivo, chicken; details: 4 weeks; for APO A1, percentage of control / APO A1 in serum / APO B in serum / APO B, percentage of control / DL-Cholesterol/Total Cholesterol / DL-Cholesterol/Total Cholesterol, percentage of control / Glucose in serum / Glucose, percentage of control / HDL-Cholesterol in serum / HDL-Cholesterol, percentage of control / HDL-Cholesterol/LDL-Cholesterol / HDL-Cholesterol/LDL-Cholesterol, percentage of control / LDL-Cholesterol in serum / LDL-Cholesterol, percentage of control / Total Cholesterol in serum / Total Cholesterol, percentage of control / Triglycerides in serum / Triglycerides, percentage of control: control diet + 50 ppm
Source text: All assays conducted on chicken or swine serum were done following the protocols described in A. A. Qureshi et al., "Lowering Of Serum Cholesterol In Hypercholesterolemic Humans By Tocotrienols" (Palmvitee), Am. J. Clin. Nutr., 53, pp. 1021S-26S (1991). All enzymatic assays were done following the protocols described in A. A. Qureshi et al., "Effects of Cereals and Culture Filtrate of Trichoderma viride on Lipid Metabolism of Swine", Lipids, 17, pp. 924 (1982). Plasma insulin, glucagon and TNF levels were measured using radioinnumoassay kits from Ventrex Laboratories, Inc. (Portland, Me.), ICN Biomedicals, Inc. (Costa Mesa, Calif.) and Genzyme Corp. (Cambridge, Mass.), respectively. […]
Each group of 6 chickens (6-week old female while leghorn) was administered the chick mash diet described in Example 5, supplemented with one of three different amounts of waxes (sterols), 50 ppm of TRF (prepared as in Example 2) or 5% equivalent of the methanol insoluble fraction Louisiana rice bran oil. […] The birds were fasted for a period of 14 hours prior to sacrifice (at 0800 hours). […]

[2] = target: T1, HMG-CoA reductase (Homo sapiens, UniProt P04035); experiment: Hepatic HMG-CoA reductase activity in chickens fed supplemented diets; type: in vivo, chicken; details: 4 weeks; for HMG-CoA Reductase, percentage of control: control diet + 50 ppm
T1 construct: hepatocytes isolated from livers of 8-week old female chickens; endogenous in cells; host or cells: primary chicken hepatocytes
T1 sequence (P04035 1-888): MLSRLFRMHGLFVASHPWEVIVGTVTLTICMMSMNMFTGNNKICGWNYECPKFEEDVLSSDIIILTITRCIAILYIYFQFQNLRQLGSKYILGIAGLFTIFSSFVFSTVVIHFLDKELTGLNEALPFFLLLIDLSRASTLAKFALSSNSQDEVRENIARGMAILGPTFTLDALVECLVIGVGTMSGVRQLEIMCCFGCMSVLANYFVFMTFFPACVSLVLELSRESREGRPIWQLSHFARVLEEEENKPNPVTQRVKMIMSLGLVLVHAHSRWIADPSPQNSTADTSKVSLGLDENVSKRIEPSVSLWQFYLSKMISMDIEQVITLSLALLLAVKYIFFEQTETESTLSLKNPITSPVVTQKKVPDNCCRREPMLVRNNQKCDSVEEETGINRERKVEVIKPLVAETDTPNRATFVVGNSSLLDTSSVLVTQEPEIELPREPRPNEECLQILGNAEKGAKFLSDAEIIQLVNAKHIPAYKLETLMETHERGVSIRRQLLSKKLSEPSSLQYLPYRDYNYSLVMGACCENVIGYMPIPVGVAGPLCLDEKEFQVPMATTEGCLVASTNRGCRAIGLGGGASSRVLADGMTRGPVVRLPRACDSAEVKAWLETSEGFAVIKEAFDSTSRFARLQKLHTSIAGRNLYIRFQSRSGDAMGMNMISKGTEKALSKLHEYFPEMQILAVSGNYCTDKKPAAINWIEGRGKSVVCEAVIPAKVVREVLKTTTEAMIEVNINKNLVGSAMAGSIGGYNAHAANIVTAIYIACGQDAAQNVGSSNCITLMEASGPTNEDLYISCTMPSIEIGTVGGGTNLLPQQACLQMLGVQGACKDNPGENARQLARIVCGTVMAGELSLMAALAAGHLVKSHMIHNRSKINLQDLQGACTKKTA
Description: This example measured the effects of the TRF and its components on the hepatic enzymatic activity of HMG-CoA reductase and cholesterol 7α-hydroxylase. […] The amount of feed consumed ranged from 11.19-11.60 g per chicken and the feeding period was 4 weeks. The birds were fasted for a period of 36 hours and refed for 48 hours prior to sacrifice (at 0800 hours).

[3] = system: cholesterol 7α-hydroxylase; experiment: Hepatic cholesterol 7α-hydroxylase activity in hypercholesterolemic swine; type: in vivo; details: control diet + 50 ppm
Source text: All assays conducted on chicken or swine serum were done following the protocols described in A. A. Qureshi et al., "Lowering Of Serum Cholesterol In Hypercholesterolemic Humans By Tocotrienols" (Palmvitee), Am. J. Clin. Nutr., 53, pp. 1021S-26S (1991). All enzymatic assays were done following the protocols described in A. A. Qureshi et al., "Effects of Cereals and Culture Filtrate of Trichoderma viride on Lipid Metabolism of Swine", Lipids, 17, pp. 924 (1982). Plasma insulin, glucagon and TNF levels were measured using radioinnumoassay kits from Ventrex Laboratories, Inc. (Portland, Me.), ICN Biomedicals, Inc. (Costa Mesa, Calif.) and Genzyme Corp. (Cambridge, Mass.), respectively.
We next measured the effects of various tocotrienols from rice bran on HMG-CoA reductase and cholesterol 7α-hydroxylase in hypercholesterolemic swine. Since pigs are very similar to humans in their cholesterol metabolism, they provide a useful model from which to study hypercholesterolemia and related diseases. […] The serum cholesterol concentration in these swine is typically above 300-500 mg/dl, as compared to 120-160 mg/dl in normal adult swine. As a result, the pigs develop complicated atherosclerotic plaques that closely resemble advanced atherosclerotic lesions found in humans.
Each group of three 5-month old swine was administered either a control diet or a control diet supplemented with 50 ppm of TRF or 50 ppm of an individual tocotrienol. The samples were prepared as described in Example 11. After a 12 hour fast, serum and plasma samples were taken a 0 hrs, 21 days and 42 days from the start of the feeding period. After taking serum and plasma samples from the pigs at the end of the 42 day period, all of the swine were fasted for a total of 40 hours, followed by a 48 hour refeeding period. One swine from each group was sacrificed at that time and the liver, intestine, lung, heart, loin muscle, adipose tissue and ham muscle were removed.

| Compound | APO A1, percentage of control [1] [%] | APO A1 in serum [1] [mg/100 ml] | APO B in serum [1] [mg/100 ml] | APO B, percentage of control [1] [%] | DL-Cholesterol/Total Cholesterol [1] | DL-Cholesterol/Total Cholesterol, percentage of control [1] [%] | Glucose in serum [1] [mg/100 ml] | Glucose, percentage of control [1] [%] | HDL-Cholesterol in serum [1] [mg/dL] | HDL-Cholesterol, percentage of control [1] [%] | HDL-Cholesterol/LDL-Cholesterol [1] | HDL-Cholesterol/LDL-Cholesterol, percentage of control [1] [%] | LDL-Cholesterol in serum [1] [mg/dL] | LDL-Cholesterol, percentage of control [1] [%] | Total Cholesterol in serum [1] [mg/dL] | Total Cholesterol, percentage of control [1] [%] | Triglycerides in serum [1] [mg/100 ml] | Triglycerides, percentage of control [1] [%] | HMG-CoA Reductase, percentage of control [2] [%] | CHOLESTEROL 7α-HYDROXYLASE, percentage of baseline value ([3]; 21 days) [%] | further results |
| --- | --- | --- | --- | --- | --- | --- | --- | --- | --- | --- | --- | --- | --- | --- | --- | --- | --- | --- | --- | --- | --- |
| CC(C)=CCC/C(C)=C/CC/C(C)=C/CCC1(C)CCc2cc(O)ccc2O1 (stereo not drawn) [P21, 3,4-dihydro-2-methyl-2-(4,8,12-trimethyltrideca-3' (E),7'(E),11'-trienyl)-2H-1-benzopyran-6-ol] | 98.79 | 138.4 | 25.40 | 76.74 | 0.74 | 126.50 | 198.80 | 88.63 | 68.88 ± 1.52 | 82.33 | 3.11 | 204.60 | 22.16 ± 0.57 | 40.25 | 92.91 ± 1.27 | 65.08 | 56.22 | 75.94 | 72.83 | 99.34 | increase in the HDL-/LDL-cholesterol ratio ([1]; 50 ppm in diet): > 100%; rank as cholesterol inhibitor among compounds tested (in words) ([1]; 50 ppm in diet): most potent cholesterol inhibitors; Cholesterol 7α-hydroxylase ([3]; 21 days): 4.50 pg/min/mg of microsomes; CHOLESTEROL 7α-HYDROXYLASE, Percentage of Control Activity ([3]; 42 days): 98.38%; CHOLESTEROL 7α-HYDROXYLASE, percentage of baseline value ([3]; 42 days): 102.21%; Cholesterol 7α-hydroxylase ([3]; 42 days): 4.63 pg/min/mg of microsomes |
| CC(C)=CCC/C(C)=C/CC/C(C)=C/CCC1CCc2cc(O)ccc2O1 (stereo not drawn) [P25, 3,4-dihydro-2-(4,8,12-trimethyltrideca-3'(E),7'(E),11'-trienyl)-2H-1-benzopyran-6-ol] | 98.78 | 138.70 | 25.20 | 76.13 | 0.73 | 125.30 | 196.10 | 87.43 | 70.12 ± 1.25 | 53.82 | 3.05 | 200.60 | 23.00 ± 1.27 | 41.77 | 95.51 ± 1.11 | 66.90 | 54.65 | 73.82 | 71.33 | 101.09 | increase in the HDL-/LDL-cholesterol ratio ([1]; 50 ppm in diet): > 100%; rank as cholesterol inhibitor among compounds tested (in words) ([1]; 50 ppm in diet): most potent cholesterol inhibitors; reduction of serum cholesterol ([1]; 50 ppm in diet): ~33%; reduction of enzymatic activity of HMG-CoA reductase ([2]; 50 ppm in diet): about 28%; Cholesterol 7α-hydroxylase ([3]; 21 days): 4.62 pg/min/mg of microsomes; CHOLESTEROL 7α-HYDROXYLASE, Percentage of Control Activity ([3]; 42 days): 98.58%; CHOLESTEROL 7α-HYDROXYLASE, percentage of baseline value ([3]; 42 days): 102.41%; Cholesterol 7α-hydroxylase ([3]; 42 days): 4.68 pg/min/mg of microsomes |
| CC(C)=CCC/C(C)=C/CC/C(C)=C/CCC1(C)CCc2cc(O)c(C)c(C)c2O1 (stereo not drawn) [γ-T3, γ-tocotrienol, reference compound] | 99.57 | 139.80 | 29.53 | 89.21 | 0.67 | 114.50 | 208.70 | 93.05 | 78.39 ± 0.96 | 93.70 | 2.09 | 137.50 | 37.52 ± 0.81 | 68.14 | 116.86 ± 1.47 | 81.85 | 61.07 | 82.49 | 78.32 | 100.89 | Cholesterol 7α-hydroxylase ([3]; 21 days): 4.53 pg/min/mg of microsomes; CHOLESTEROL 7α-HYDROXYLASE, Percentage of Control Activity ([3]; 42 days): 98.18%; CHOLESTEROL 7α-HYDROXYLASE, percentage of baseline value ([3]; 42 days): 102.00%; Cholesterol 7α-hydroxylase ([3]; 42 days): 4.58 pg/min/mg of microsomes |
